We go through three compounds from patent US20130191933A1, “METHODS OF TREATING PAIN AND MORPHINE TOLERANCE VIA MODULATION OF HEDGEHOG SIGNALLING PATHWAY” (BOARD OF REGENTS, THE UNIVERSITY OF TEXAS SYSTEM, priority 2010, published 2013).

Experiment [1] deals with rats with sciatic nerve ligation (neuropathic pain). Nature of the experiment: Neuropathic pain paradigm: sciatic nerve ligation, mechanical allodynia by Von Frey filaments. It is filed as in vivo, Sprague-Dawley rats. The following applies: rats two weeks after sciatic nerve ligation; daily intrathecal (lumbar puncture) drug; sub-clinical/low dose of morphine. How it is done:
Animals underwent sciatic nerve ligation as described (Chung et al.), and were then allowed to recover for two weeks. Allodynia was measured using mechanical withdrawal threshold (Von Frey hairs). […] Drugs were administered using lumbar puncture under anesthesia.
Hh signaling modulates neuropathic pain, inflammatory pain, and opioid tolerance in rats. […] With regards to neuropathic pain, animals underwent sciatic nerve ligation as previously described in Chung et al., and were then allowed to recover for two weeks. Allodynia was measured by assessing the withdrawal threshold to a mechanical stimulus (Von Frey hairs). […] Drugs were administered using lumbar puncture under anesthesia.
To test this, we examined the effects of pharmacologically blocking Smoothened activity in rodent pain models. Injection of Complete Freund's Adjuvant (CFA) into the rat hindpaw causes local inflammation, swelling, and decreased nociceptive thresholds, Stein, C., et al., A. Unilateral inflammation of the Hindpaw in rats as a Model of Prolonged Noxious Stimulation: Alterations in Behavior and Nociceptive Thresholds, Pharmacol Biochem Behav 31, […] (1988). FIG. 11 provides an inflammatory pain paradigm. Here, the hindpaws were injected with saline (sham, n=6), or CFA. […] Similarly, FIG. 10 provides a neuropathic pain paradigm. […] Mechanical allodynia was assessed using Von Frey filaments. […]

A further experiment has as its target Smo (Homo sapiens, UniProt Q99835). As to conditions: cited from earlier work.
The subject of experiment [2] is rats with complete Freund's adjuvant (CFA) injection (inflammatory pain). Put plainly: Inflammatory pain paradigm: CFA hindpaw injection, thermal hyperalgesia by paw withdrawal latency (PWL). Type of experiment: in vivo, Sprague-Dawley rats. As to conditions: rats after CFA hindpaw injection, intrathecal (lumbar puncture) drug, Days 1-4. On the procedure:
Animals underwent complete Freund's adjuvant (CFA) injection under anesthesia. Hyperalgesia was then measured using withdrawal latency of the paw to a thermal stimulus (PWL). […] Drugs were administered using lumbar puncture under anesthesia.
Hyperalgesia was then measured using withdrawal latency of the paw to a thermal stimulus (PWL). […] Drugs were administered using lumbar puncture under anesthesia..
To test this, we examined the effects of pharmacologically blocking Smoothened activity in rodent pain models. Injection of Complete Freund's Adjuvant (CFA) into the rat hindpaw causes local inflammation, swelling, and decreased nociceptive thresholds, Stein, C., et al., A. Unilateral inflammation of the Hindpaw in rats as a Model of Prolonged Noxious Stimulation: Alterations in Behavior and Nociceptive Thresholds, Pharmacol Biochem Behav 31, […] (1988). FIG. 11 provides an inflammatory pain paradigm. Here, the hindpaws were injected with saline (sham, n=6), or CFA. […] Similarly, FIG. 10 provides a neuropathic pain paradigm. […] Animals received daily intrathecal injections of vehicle (n=3) or drugs (CP, n=6; MS, n=6; or MS+CP, n=5). Mechanical allodynia was assessed using Von Frey filaments. […] All data are+/−S.E.M.
Animals: Sprague-Dawley rats (male, […]) were housed three to a cage with water and food ad libitum and kept in temperature controlled rooms on a 12:12 hour light-dark cycle, with the dark cycle beginning at 7:00 pm. Animals were habituated to the testing environment for one week prior to testing and all tests were performed in the morning. All protocols were approved by our Institutional Animal Care and Use Committee.
(§1) Drugs and Intermittent Lumbar Puncture: Rats were anesthetized with 2% isoflurane in oxygen. The lumbar region was shaved, prepared with Betadine solution and the intervertebral spaces widened by placing the animal on a plexiglas tube.
Complete Freund's Adjuvant (CFA) […]: Under isoflurane […], the plantar surface of the left hindpaw was cleansed and 100 μl of CFA (Sigma, St. Louis, Mo.) injected using a 25-gauge needle. Animals recovered for 24 hours prior to analgesic testing.
Paw Withdrawal Latency (PWL): PWL was measured by placing the animals in Plexiglas cages (9×22×25 cm.) on a modified Hargreaves Device, consisting of a glass surface maintained at 30° C. A stimulus lamp was focused on the tail with three measurements taken on different portions of the tail. An abrupt flick of the tail secondary to the thermal stimulus was sensed by photodiodes, and this served to terminate the stimulus and stop the timer. Animals were habituated to the device for one week prior to testing and for 30 min before each test session. The intensity of the thermal stimulus used in the TFL test was adjusted so baseline TFL was between 10-12 seconds to 20 second was used as an automatic cutoff time to avoid paw damage. The TFLs at the time points of 15, 30, and 45 minutes post-injection were measured and compared (n=6-8 per group).

For experiment [3], the system named is morphine tolerance in rats. Nature of the experiment: Morphine tolerance assessed by tail flick latency (TFL). Type of experiment: in vivo. On the procedure:
(§2) Drugs were administered daily using lumbar puncture under anesthesia. Tolerance was then assessed using tail flick latency (TFL), or the withdrawal latency of the tail to a thermal stimulus. […] On Day 8, all animals received morphine alone.
as §2, §1

Experiment [4] relates to Gli1, Gli2, PtchI and other Shh-target genes. The following applies: in a variety of cell types; cited from earlier work.
In experiment [5] the test system is Gli-mediated transcription. As to conditions: in a variety of cell types (Cur-61414: cell and tissues types; Robotnikinin: also synthetic human tissue); cited from earlier work.
Another experiment concerns the target Shh (Homo sapiens, UniProt Q15465). As to conditions: cited from earlier work.

“Also recorded” adds a separate entry of the source. Where two headings read alike, the source gives them in different places.

Sequence of Smo (Q99835 28-787): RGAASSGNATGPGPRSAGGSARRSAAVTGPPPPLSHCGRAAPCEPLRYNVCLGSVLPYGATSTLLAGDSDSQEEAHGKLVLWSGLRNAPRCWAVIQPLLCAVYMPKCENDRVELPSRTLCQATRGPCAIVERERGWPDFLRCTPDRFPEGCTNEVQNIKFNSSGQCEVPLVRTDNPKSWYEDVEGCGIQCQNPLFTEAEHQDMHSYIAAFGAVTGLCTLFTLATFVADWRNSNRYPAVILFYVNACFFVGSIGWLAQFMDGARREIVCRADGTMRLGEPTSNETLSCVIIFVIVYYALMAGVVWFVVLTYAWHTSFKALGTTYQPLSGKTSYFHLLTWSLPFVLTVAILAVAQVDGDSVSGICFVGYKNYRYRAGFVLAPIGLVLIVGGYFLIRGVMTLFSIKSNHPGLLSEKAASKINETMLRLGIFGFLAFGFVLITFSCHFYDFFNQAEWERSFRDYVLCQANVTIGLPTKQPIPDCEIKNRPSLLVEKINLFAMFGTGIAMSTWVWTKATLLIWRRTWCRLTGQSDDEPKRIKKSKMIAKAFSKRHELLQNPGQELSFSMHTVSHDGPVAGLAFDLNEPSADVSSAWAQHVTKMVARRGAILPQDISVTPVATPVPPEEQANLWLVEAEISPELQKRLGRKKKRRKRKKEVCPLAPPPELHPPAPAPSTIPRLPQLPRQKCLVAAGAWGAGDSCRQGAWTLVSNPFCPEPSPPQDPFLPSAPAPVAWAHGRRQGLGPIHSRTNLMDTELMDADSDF
Sequence of Shh (Q15465 24-462, species assumed): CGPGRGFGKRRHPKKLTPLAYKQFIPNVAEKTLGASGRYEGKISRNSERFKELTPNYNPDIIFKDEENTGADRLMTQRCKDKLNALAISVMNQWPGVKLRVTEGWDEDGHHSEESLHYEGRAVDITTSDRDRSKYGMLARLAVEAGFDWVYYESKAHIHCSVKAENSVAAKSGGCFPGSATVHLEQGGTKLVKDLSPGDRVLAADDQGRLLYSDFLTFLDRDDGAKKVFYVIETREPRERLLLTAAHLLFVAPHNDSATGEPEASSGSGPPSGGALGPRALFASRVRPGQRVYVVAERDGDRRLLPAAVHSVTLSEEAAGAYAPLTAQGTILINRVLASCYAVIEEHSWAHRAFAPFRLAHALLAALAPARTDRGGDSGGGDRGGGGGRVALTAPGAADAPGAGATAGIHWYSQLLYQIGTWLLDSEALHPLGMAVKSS

Turning to `CC1=C2C[C@H]3[C@@H](CC=C4C[C@@H](O)CC[C@@]43C)[C@@H]2CC[C@]12O[C@@H]1C[C@H](C)CN[C@H]1[C@H]2C` [Cyclopamine], the “analgesic effect on mechanical allodynia (mechanical withdrawal threshold, Von Frey)” value in experiment [1] was “Neither morphine or cyclopamine had analgesic effects; also recorded: Neither a sub-clinical dose of morphine nor cyclopamine had analgesic effects; also recorded: neither cyclopamine nor a low dose of morphine had analgesic effects alone”. Also, the “targeting / binding of Smo” value on Smo is recorded as “Targets Smo”; on Smo (listed as cyclopamine), “target Smo”. In addition, the “analgesic effect on thermal hyperalgesia (paw withdrawal latency, PWL)” value in experiment [2] was “mild analgesic effect that plateaued”; in experiment [2] (listed as cyclopamine) it was “mild analgesic effect that plateaued; also recorded: had no analgesic effect”. Further, the “reversal of morphine tolerance (tail flick latency, TFL)” value in experiment [3] (daily lumbar puncture, cyclopamine added to morphine from start, Day 3 or Day 5) is “completely reversed tolerance within two days; also recorded: reverses the development of morphine tolerance”. The “tolerance on Day 8 after cyclopamine was removed (TFL)” value in experiment [3] (on Day 8 all animals received morphine alone) is listed as “animals were not tolerant on Day 8”.

With `CC1=C2C(=O)[C@H]3[C@@H](CC=C4C[C@@H](O)CC[C@@]43C)[C@@H]2CC[C@]12O[C@@H]1C[C@H](C)CN[C@H]1[C@H]2C` [Jervine], the “targeting / binding of Smo” value on Smo is reported as “Targets Smo”; on Smo (listed as jervine), “target Smo”. In addition, in experiment [4], the “transcription of Gli1, Gli2, PtchI and other Shh-target genes” value is “Inhibits transcription of Gli1, Gli2, PtchI and other Shh-target”.

For `O=C(C[C@@H]1C/C=C/CCC(=O)O[C@H](c2ccccc2)CNC1=O)NCc1ccc(Cl)cc1` [Robotnikinin], the Gli-mediated transcription entry in experiment [5] is recorded as “Represses Gli-medicated transcription in a variety of cell types and”. Also, the “direct binding to Shh” value at Shh is listed as “binds directly to Sonic Hedgehog; also recorded: Binds directly to Shh”.
